≈ marks a conversion by molar mass, not a printed value. Like-named read-outs stand apart in the source and are kept apart here.
Columns and labels:
[1] = Stability of synthetic compounds (no method given); format: physicochemical
HIV-2 (ROD) = experiment: microbe, parasite or virus in culture; format: cell-based; details: Human immunodeficiency virus 2, CCRF-CEM; Table 19; read-out: EC50 (CEM) HIV-2 (ROD)
Protocol: Human T-lymphocytic CEM cells (4.5×10^5 cells per ml) were suspended in fresh cell culture medium and infected with HIV-1 (IIIB and NL4.3) or HIV-2 (ROD or EHO) at 100 CCID50 (1 CCID50 being the virus dose infective for 50% of the cell cultures) per ml of cell suspension. Then, 100 μl of the infected cell suspension were transferred to microplate wells, mixed with 100 μl of appropriate (freshly prepared) dilutions of the test compounds (i.e., at final concentrations of […]), and were further incubated at 37° C. After 4 to 5 days, giant cell formation was recorded microscopically in the CEM cell cultures. […] (See Table 1).
(§1) MT-4, C8166 or CEM cells (4 to 5×10^5 cells per ml) were suspended in fresh culture medium (RPMI-1640 medium supplemented with 10% fetal bovine serum (FBS) (BioWittaker Europe, Verviers, Belgium), 2 mM L-glutamine and […] NaHCO3). Subsequently, the cells were infected with HIV-1 (IIIB) or HIV-2(ROD) at ˜100 CCID50 (1 CCID50 being the dose infective for 50% of the cell cultures) per ml of cell suspension. Then, 100 μl of the infected cell suspension were transferred to 96-well microplate wells, mixed with 100 μl of the appropriate (5-fold) dilutions of the test compounds and further incubated at 37° C. After 4 to 5 days, giant cell formation was recorded microscopically in the CEM and C8166 cell cultures. The MT-4 cell cultures were treated with trypan blue and the number of viable cells was determined.

HIV-1 (IIIB) [2] = experiment: microbe, parasite or virus in culture; details: Human immunodeficiency virus 1, IIIB
Protocol: as §1

HIV-2(ROD) = experiment: microbe, parasite or virus in culture
Protocol: as §1

[3] = Cytotoxicity (CC50) in MT-4 cells; format: cell-based; details: human, MT-4 cells
[4] = Cytotoxicity (CC50) in C8166 cells; format: cell-based; details: human, C8166 cells
human PBMC = experiment: Mitogenic activity assay, [3H]dThd incorporation in human PBMC with or without PHA; format: cell-based; details: concentrations up to 200 μg/ml, absence of PHA
Protocol: The mitogenic activity assay was conducted as follows. Human PBMC were isolated from buffy coats and brought in RPMI-1640 cell culture medium supplemented with 10% FCS and 2 mM L-glutamine. The cell cultures were exposed to several concentrations of the test compounds for 3 days in the absence or presence of PHA (phytohemagglutinin) (Murex Biotech Ltd., Dartford, UK) at 2 μg/ml. Subsequently, 0.25 μCi [CH3^−3H]dThd was added and, after 20 hr incubation at 37° C., the cells were precipitated in the presence of 10% TCA and the precipitate was washed twice with 10% TCA, twice with 5% TCA and once with 70% ethanol. The precipitate, containing [^3H]DNA, was then examined for radioactivity in a liquid scintillation counter.

in vitro = details: human
HIV-1 (IIIB) [5] = experiment: microbe, parasite or virus in culture; details: Human immunodeficiency virus 1, IIIB, CCRF-CEM
[6] = system: Herpes simplex virus-1 (KOS); details: HEL; reduces virus-induced cytopathogenicity by 50%
[7] = system: Herpes simplex virus-2 (G); details: HEL; reduces virus-induced cytopathogenicity by 50%
Vaccinia virus [8] = details: HEL; reduces virus-induced cytopathogenicity by 50%
[9] = system: Vesicular stomatitis virus; details: HEL; reduces virus-induced cytopathogenicity by 50%
[10] = system: Herpes simplex virus-1 TK^− KOS ACV^r; details: HEL; reduces virus-induced cytopathogenicity by 50%
Coxsackie virus B4 [11] = experiment: Antiviral activity in HeLa cell cultures, Coxsackie virus B4; format: cell-based; details: Enterovirus B, B4, reduces virus-induced cytopathogenicity by 50%, read-out: Minimum inhibitory concentration Coxsackie virus B4
Protocol: (§2) The cytotoxicity and antiviral activity of various concentrations of G-NH2 and GPG-NH2 were evaluated in cell cultures that were infected with various types of viruses. Conventional host cell culture, viral infection, and infectivity analysis for each different type of cell and virus were followed. Compounds that were known to inhibit replication of the particular types of viruses analyzed were used as controls.

Coxsackie virus B4 [12] = experiment: Antiviral activity in Vero cell cultures, Coxsackie virus B4; format: cell-based; details: Enterovirus B, B4, reduces virus-induced cytopathogenicity by 50%, read-out: Minimum inhibitory concentration Coxsackie virus B4
Protocol: as §2

Parainfluenza-3 virus = experiment: organism not typed; details: Vero, read-out: Minimum inhibitory concentration Parainfluenza-3 virus
Reovirus-1 = experiment: organism not typed; details: Vero, read-out: Minimum inhibitory concentration Reovirus-1
[13] = system: Herpes simplex virus-1 (KOS); experiment: microbe, parasite or virus in culture; details: Human alphaherpesvirus 1, HEL, read-out: Minimum inhibitory concentration Herpes simplex virus-1 (KOS)
[14] = system: Herpes simplex virus-2 (G); experiment: microbe, parasite or virus in culture; details: Human alphaherpesvirus 2, HEL, read-out: Minimum inhibitory concentration Herpes simplex virus-2 (G)
Vaccinia virus [15] = experiment: microbe, parasite or virus in culture; details: Orthopoxvirus vaccinia, HEL, read-out: Minimum inhibitory concentration Vaccinia virus
[16] = system: Vesicular stomatitis virus; experiment: microbe, parasite or virus in culture; details: HEL, read-out: Minimum inhibitory concentration Vesicular stomatitis virus
[17] = system: Herpes simplex virus-1 TK^− KOS ACV^r; experiment: microbe, parasite or virus in culture; details: Human alphaherpesvirus 1, HEL, read-out: Minimum inhibitory concentration Herpes simplex virus-1 TK^− KOS ACV^r
[18] = system: Vesicular stomatitis virus; experiment: microbe, parasite or virus in culture; details: HeLa, read-out: Minimum inhibitory concentration Vesicular stomatitis virus
[19] = system: Respiratory syncytial virus; experiment: microbe, parasite or virus in culture; details: human respiratory syncytial virus, HeLa, read-out: Minimum inhibitory concentration Respiratory syncytial virus
Sindbis virus = experiment: microbe, parasite or virus in culture; details: Vero, read-out: Minimum inhibitory concentration Sindbis virus
Punta Toro virus = experiment: microbe, parasite or virus in culture; details: Vero, read-out: Minimum inhibitory concentration Punta Toro virus
HIV (SF2 virus) = experiment: HIV infectivity assay, SF2-infected H9 cells, reverse transcriptase (RT) quantification in supernatant; format: cell-based
[20] = C8166, read-out: EC50 (C8166) HIV-1 (IIIB), Table 19
[21] = C8166, read-out: EC50 (C8166) HIV-1 (IIIB), Table 20
[22] = MT4, read-out: EC50 (MT-4) HIV-1 (IIIB)
[23] = MT4, read-out: EC50 (MT-4) HIV-1(IIIB)
[24] = Human immunodeficiency virus 2, C8166, read-out: EC50 (C8166) HIV-2 (ROD), Table 19
[25] = Human immunodeficiency virus 2, C8166, read-out: EC50 (C8166) HIV-2 (ROD), Table 20
[26] = Human immunodeficiency virus 2, MT4, read-out: EC50 (MT-4) HIV-2 (ROD), Table 19
[27] = Human immunodeficiency virus 2, MT4, read-out: EC50 (MT-4) HIV-2 (ROD), Table 20
[28] = read-out: EC50 (CEM) HIV-1 (IIIB), Table 19
[29] = read-out: EC50 (CEM) HIV-1(IIIB), Table 20

## COC(N)C(N)=O (stereo not drawn) [Formula G, alpha-methoxyglycinamide]
[1]
  stability: more stable than alpha-hydroxyglycinamide

## CN1C(=O)C2(CCCCC2)NNC1=S [Formula M]
HIV-2 (ROD)
  EC50: 48 ± 14 µM
HIV-1 (IIIB) [2]; [20]
  EC50: > 480 µM
HIV-1 (IIIB) [2]; [21]
  EC50: > 190 µM
HIV-1 (IIIB) [2]; [22]
  EC50: > 480 µM
HIV-1 (IIIB) [2]; [23]
  EC50: > 900 µM
HIV-2(ROD); [24]
  EC50: 480 µM
HIV-2(ROD); [25]
  EC50: > 190 µM
HIV-2(ROD); [26]
  EC50: > 480 µM
HIV-2(ROD); [27]
  EC50: > 900 µM
[3]
  CC50: 455 ± 4.6 µM
[4]
  CC50: 488 ± 3.3 µM
Human PBMC
  mitogenic activity against human PBMCs: non-mitogenic
In vitro
  CC50 at 96 hr: ≥ 930 µM
HIV-1 (IIIB) [5]; [28]
  EC50: 97 ± 42 µM
HIV-1 (IIIB) [5]; [29]
  EC50: 97 ± 42 µM

## Nc1nc2c(ncn2COCCO)c(=O)[nH]1 [ACG, reference compound]
[6]
  Minimum inhibitory concentration Herpes simplex virus-1 (KOS): 0.0768 µg/mL (≈ 0.341 µM)
[7]
  Minimum inhibitory concentration Herpes simplex virus-2 (G): 0.0768 µg/mL (≈ 0.341 µM)
Vaccinia virus [8]
  Minimum inhibitory concentration Vaccinia virus: >400 µg/mL
[9]
  Minimum inhibitory concentration Vesicular stomatitis virus: >400 µg/mL
[10]
  Minimum inhibitory concentration Herpes simplex virus-1 TK^− KOS ACV^r: 9.6 µg/mL (≈ 42.6 µM)

## NC(=O)c1ncn([C@@H]2O[C@H](CO)[C@@H](O)[C@H]2O)n1 [Ribavirin]
Coxsackie virus B4 [11]
  EC50: 48 µg/mL (≈ 197 µM)
Coxsackie virus B4 [12]
  EC50: > 400 µg/mL
Parainfluenza-3 virus
  EC50: 48 µg/mL (≈ 197 µM)
Reovirus-1
  EC50: 16 µg/mL (≈ 65.5 µM)
[13]
  EC50: 48 µg/mL (≈ 197 µM)
[14]
  EC50: > 400 µg/mL
Vaccinia virus [15]
  EC50: 240 µg/mL (≈ 983 µM)
[16]
  EC50: > 400 µg/mL
[17]
  EC50: 80 µg/mL (≈ 328 µM)
[18]
  EC50: 9.6 µg/mL (≈ 39.3 µM)
[19]
  EC50: 16 µg/mL (≈ 65.5 µM)
Sindbis virus
  EC50: > 400 µg/mL
Punta Toro virus
  EC50: 48 µg/mL (≈ 197 µM)

## CC(C)C(N)C(=O)NC(O)C(N)=O [Formula Y, N-L-Valyl-α-Hydroxyglycinamide]
HIV (SF2 virus); 25 μM
  HIV replication at 25 μM: neglible levels
HIV (SF2 virus); Human immunodeficiency virus 1, H9, 264 h, RT quantification, day 11, read-out: IC50
  IC50: ~16 µM
[1]
  stability: stable

## Nc1nc2c(ncn2COC(CO)CO)c(=O)[nH]1 [DHPG, reference compound]
[6]
  Minimum inhibitory concentration Herpes simplex virus-1 (KOS): 0.0038 µg/mL (≈ 0.0149 µM)
[7]
  Minimum inhibitory concentration Herpes simplex virus-2 (G): 0.0192 µg/mL (≈ 0.0752 µM)
Vaccinia virus [8]
  Minimum inhibitory concentration Vaccinia virus: 60 µg/mL (≈ 235 µM)
[9]
  Minimum inhibitory concentration Vesicular stomatitis virus: >400 µg/mL
[10]
  Minimum inhibitory concentration Herpes simplex virus-1 TK^− KOS ACV^r: 0.48 µg/mL (≈ 1.88 µM)

## CN1C(=O)C(C)(C)NNC1=S [Formula K]
HIV-2 (ROD)
  EC50: 65 ± 18 µM
HIV-1 (IIIB) [2]; [20]
  EC50: 346 µM
HIV-1 (IIIB) [2]; [21]
  EC50: 289 ± 81 µM
HIV-1 (IIIB) [2]; [22]
  EC50: > 580 µM
HIV-1 (IIIB) [2]; [23]
  EC50: > 1000 µM
HIV-2(ROD); [24]
  EC50: > 580 µM
HIV-2(ROD); [25]
  EC50: > 230 µM
HIV-2(ROD); [26]
  EC50: > 580 µM
HIV-2(ROD); [27]
  EC50: > 1000 µM
[3]
  CC50: 906 ± 179 µM
[4]
  CC50: 896 ± 265 µM
Human PBMC
  mitogenic activity against human PBMCs: non-mitogenic
In vitro
  CC50 at 96 hr: ≥ 1150 µM
HIV-1 (IIIB) [5]; [28]
  EC50: 115 µM
HIV-1 (IIIB) [5]; [29]
  EC50: 115 µM

From patent US20080076824A1, “Compounds That Inhibit Replication Of Human Immunodeficiency Virus” (priority 2004, published 2008)
